Assay results: patent US9265253B2, “Use of macrocyclic picolinamides as fungicides” (DOW AGROSCIENCES LLC, priority 2013, dated 2016)
Read-outs that look alike come from different tables or passages of the source.

What was measured:
[1] = system: Mycosphaerella graminicola; Anamorph: Septoria tritici; assay: Leaf Blotch of Wheat (SEPTTR) disease control; format: in vivo; settings: Zymoseptoria tritici; for pest or weed control at 100 ppm: rate 100 ppm; for pest or weed control at 121.5 g/ha: rate 121.5 g/H
Summary of the method: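 Seedlings of variety Yuma grew until the first leaf fully emerged. Fungicide solution (acetone/water with Triton X-100) was sprayed to run-off; plants were inoculated with S. tritici spores before or after spraying, held one day dark and two to three days lit at 100% humidity, then kept at 20° C.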

[2] = system: Puccinia triticina; Synonym: Puccinia recondite f. Sp. Tritici; assay: Wheat Brown Rust (PUCCRT) disease control; format: in vivo; settings: Puccinia triticina, topical; for pest or weed control at 100 ppm: rate 100 ppm; for pest or weed control at 121.5 g/ha: rate 121.5 g/H
Summary of the method: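 Brown rust on first-leaf Yuma wheat: spore inoculation before or after spray application (acetone/Triton X-100 solution, or EC with Trycol in track spray), overnight 100% RH at 22 °C, disease developed at 24 °C. Severity scored 0–100% and converted to percent control against untreated.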

[3] = 24 h, 1 Day Protectant, read-out: SEPTTR 1 DP disease control
[4] = 72 h, 3 Day Curative, read-out: SEPTTR 3 DC disease control
[5] = 24 h, 1 Day Protectant, read-out: PUCCRT 1 DP disease control
[6] = 72 h, 3 Day Curative, read-out: PUCCRT 3 DC disease control

| Compound | pest or weed control at 100 ppm [1, 3] [%] | pest or weed control at 121.5 g/ha [1, 3] [%] | pest or weed control at 100 ppm [1, 4] [%] | pest or weed control at 121.5 g/ha [1, 4] [%] | pest or weed control at 100 ppm [2, 5] [%] | pest or weed control at 121.5 g/ha [2, 5] [%] | pest or weed control at 100 ppm [2, 6] [%] | pest or weed control at 121.5 g/ha [2, 6] [%] |
| --- | --- | --- | --- | --- | --- | --- | --- | --- |
| COc1ccnc(C(=O)N[C@H]2CCC[C@H](Cc3ccc(F)cc3)[C@@H](OC(=O)C3CCCC3)[C@H](C)OC2=O)c1OCOC(C)=O [Compound F104] | 80 to 100 | 80 to 100 | 80 to 100 | 80 to 100 | 80 to 100 | 80 to 100 | 80 to 100 | 0 to 80 |
| COc1ccnc(C(=O)N[C@H]2CCC[C@H](Cc3ccc(F)cc3)[C@@H](OC(=O)C(C)C)[C@H](C)OC2=O)c1OCOC(C)=O [Compound F105] | 80 to 100 | 80 to 100 | 80 to 100 | 80 to 100 |  | 80 to 100 | 80 to 100 | 80 to 100 |
| CCO[C@@H]1[C@@H](Cc2ccccc2)CCC[C@H](NC(=O)c2nccc(OC)c2OCOC(C)=O)C(=O)O[C@H]1C [Compound F111] |  | 80 to 100 |  | 80 to 100 |  | 80 to 100 |  | 80 to 100 |
| COCCO[C@@H]1[C@@H](Cc2ccccc2)CCC[C@H](NC(=O)c2nccc(OC)c2OCOC(C)=O)C(=O)O[C@H]1C [Compound F112] |  | 80 to 100 |  | 80 to 100 |  | 80 to 100 |  | 80 to 100 |
| COc1ccnc(C(=O)N[C@H]2CCC[C@H](CC3CCCC3)[C@@H](Oc3ccccc3)[C@H](C)OC2=O)c1OCOC(C)=O [Compound F115] | 80 to 100 | 80 to 100 | 80 to 100 | 80 to 100 | 80 to 100 | 80 to 100 | 80 to 100 | 0 to 80 |
| COc1ccc(C[C@H]2CCC[C@H](NC(=O)c3nccc(OC)c3OCOC(C)=O)C(=O)O[C@@H](C)[C@@H]2OCC2CC2)cc1 [Compound F116] | 80 to 100 | 80 to 100 | 80 to 100 | 80 to 100 | 80 to 100 | 80 to 100 | 80 to 100 | 80 to 100 |
| COc1ccnc(C(=O)N[C@H]2CCC[C@H](Cc3ccco3)[C@@H](OCC(C)C)[C@H](C)OC2=O)c1OCOC(C)=O [Compound F120] |  | 80 to 100 |  | 0 to 80 |  | 80 to 100 |  |  |
| CCCO[C@@H]1[C@@H](CC2CCCC2)CCC[C@H](NC(=O)c2nccc(OC)c2OCOC(C)=O)C(=O)O[C@H]1C [Compound F122] | 80 to 100 | 80 to 100 | 80 to 100 | 80 to 100 | 80 to 100 | 80 to 100 | 80 to 100 | 80 to 100 |
| COc1ccnc(C(=O)N[C@H]2CCC[C@H](CC3CCCC3)[C@@H](OCC(C)C)[C@H](C)OC2=O)c1OCOC(C)=O [Compound F123] | 80 to 100 | 80 to 100 | 80 to 100 | 80 to 100 | 80 to 100 | 80 to 100 | 80 to 100 | 0 to 80 |
| COc1ccnc(C(=O)N[C@H]2CCC[C@H](C)[C@@H](OCc3ccccc3)[C@H](C)OC2=O)c1OCOC(C)=O [Compound F125] | 80 to 100 | 80 to 100 | 80 to 100 | 80 to 100 | 80 to 100 | 80 to 100 | 80 to 100 | 80 to 100 |
| COc1ccnc(C(=O)N[C@H]2CCC[C@H](CCOc3ccccc3)[C@@H](Oc3ccccc3)[C@H](C)OC2=O)c1OCOC(C)=O [Compound F129] | 80 to 100 | 80 to 100 | 80 to 100 | 80 to 100 | 80 to 100 | 80 to 100 | 80 to 100 | 0 to 80 |
| COc1ccnc(C(=O)N[C@H]2CCC[C@H](CCSC)[C@@H](OCC(C)C)[C@H](C)OC2=O)c1OCOC(C)=O [Compound F131] | 80 to 100 | 0 to 80 | 80 to 100 | 80 to 100 | 80 to 100 | 80 to 100 | 80 to 100 | 80 to 100 |
| CC[C@H]1CCC[C@H](NC(=O)c2nccc(OC)c2OCOC(C)=O)C(=O)O[C@@H](C)[C@@H]1OCC(C)C [Compound F133] | 80 to 100 | 80 to 100 | 80 to 100 | 80 to 100 | 80 to 100 | 80 to 100 | 80 to 100 | 80 to 100 |
| COc1ccnc(C(=O)N[C@H]2CCC[C@H](CCBr)[C@@H](Oc3ccccc3)[C@H](C)OC2=O)c1OCOC(C)=O [Compound F135] | 80 to 100 |  | 80 to 100 |  | 80 to 100 |  | 80 to 100 |  |
| CC[C@H]1CCC[C@H](NC(=O)c2nccc(OC)c2OCOC(C)=O)C(=O)O[C@@H](C)[C@@H]1Oc1ccccc1 [Compound F136] | 80 to 100 | 80 to 100 | 80 to 100 | 80 to 100 | 80 to 100 | 80 to 100 | 80 to 100 | 80 to 100 |
| COc1ccnc(C(=O)N[C@H]2CCC[C@H](Cc3ccc(F)cc3F)[C@@H](OCc3ccccc3)[C@H](C)OC2=O)c1OCOC(C)=O [Compound F137] | 80 to 100 | 80 to 100 | 80 to 100 | 80 to 100 | 80 to 100 | 80 to 100 | 80 to 100 | 0 to 80 |
| COc1ccnc(C(=O)N[C@H]2CCC[C@H](Cc3ccc(C)cc3)[C@@H](OCCCC(F)(F)F)[C@H](C)OC2=O)c1OCOC(C)=O [Compound F139] | 80 to 100 | 80 to 100 | 80 to 100 | 80 to 100 | 80 to 100 | 80 to 100 | 80 to 100 | 0 to 80 |
| COc1ccnc(C(=O)N[C@H]2CCC[C@H](CCOCC3CC3)[C@@H](OCC3CC3)[C@H](C)OC2=O)c1OCOC(C)=O [Compound F140] | 80 to 100 | 0 to 80 | 0 to 80 | 0 to 80 | 80 to 100 | 80 to 100 | 80 to 100 | 80 to 100 |
| COc1ccnc(C(=O)N[C@H]2CCC[C@H](CCOc3ccccc3)[C@@H](OCC3CC3)[C@H](C)OC2=O)c1OCOC(C)=O [Compound F142] | 80 to 100 | 80 to 100 | 80 to 100 | 0 to 80 | 80 to 100 | 80 to 100 | 80 to 100 | 80 to 100 |
| COc1ccnc(C(=O)N[C@H]2CCC[C@@H]3CCO[C@H]3[C@H](C)OC2=O)c1OCOC(C)=O [Compound F143] | 0 to 80 | 0 to 80 | 0 to 80 |  | 80 to 100 | 80 to 100 | 80 to 100 | 80 to 100 |
| COc1ccnc(C(=O)N[C@H]2CCC[C@H](CCC(C)C)[C@@H](Oc3ccccc3)[C@H](C)OC2=O)c1OCOC(=O)C(C)C [Compound F147] | 80 to 100 | 80 to 100 | 80 to 100 | 80 to 100 | 80 to 100 | 80 to 100 | 80 to 100 | 0 to 80 |
| COc1ccnc(C(=O)N[C@H]2CCC[C@H](CCC(C)C)[C@@H](OCC(C)C)[C@H](C)OC2=O)c1OCOC(=O)C(C)C [Compound F148] | 80 to 100 | 80 to 100 | 80 to 100 | 80 to 100 | 80 to 100 | 80 to 100 | 80 to 100 | 80 to 100 |
